Columns and labels:
[1] = system: KB tumor xenografts; assay: PET imaging studies in KB tumor-bearing mice; assay type: in vivo
Procedure: PET experiments were performed with an eXplore VISTA PET/CT tomograph (GE). Tumor bearing mice were injected with 10-18 MBq of 3′-aza-2′-[^18F]fluorofolic acid (100-150 μl per injection) via lateral tail vein. […] Animals were anesthetized with isoflurane in an air/oxygen mixture. The PET scans were acquired from 120-150 min p.i. After acquisition, PET data were reconstructed in user-defined time frames. The fused datasets of PET and CT were analyzed with PMOD (version 3.2) software.
Dynamic PET scans of mice 1.5-90 min p.i. of 3′-aza-2′-[^18F]fluorofolic acid and at 60-150 min p.i. were performed. Static PET scans of [^18F]-2′3′-aza-folic acid were typically performed with a scan time from 120-150 min p.i. […] The uptake in other non-target organs was negligible, the only exceptions being the liver, kidneys and salivary glands.

[2] = Human plasma stability; assay type: in vitro ADME; conditions: 37° C., 4 h, radio-UPLC
Procedure: Radio-UPLC: For stability studies, an ultra-performance liquid chromatography (UPLC™, Waters) system, equipped with an Acquity UPLC BEH C18 column (1.7 μm, 2.1×50 mm, Waters) and a coincidence detector (FlowStar LB513, Berthold) was used with following solvent system: eluent A was a NaH2PO4/Na2HPO4 buffer (0.05 M, pH 7.4) and eluent B was acetonitrile. A gradient from 0-4.0 min 100%-40% A, at a flow rate of 0.6 ml/min was used.
The radiotracer was tested with regard to its stability in human blood plasma over a period of 4 hours at 37° C. The formulated product (200 μL) was diluted with sodium phosphate buffer (100 μl) and an aliquot (60 μl, 15 MBq) was added to human plasma (500 μL), pre-incubated at 37° C. The mixture was shaken on a Thermomixer compact (Eppendorf) at 37° C. and 500 rpm. After several time points (0, 30, 60, 120, 150 and 240 min) aliquots were taken after tracer addition. Each aliquot (70 μl) was added to ice-cold MeOH (150 μl) to precipitate the proteins. To separate the supernatant from the precipitate, the suspension was centrifuged for 10 min at 13400 rpm (Eppendorf MiniSpin) at room temperature. The supernatant was passed through a microfilter (Sartorius Stedim Biotech GmbH, Minisart RC 25, 0.45 μm) and was analyzed on the radio-UPLC system.

[3] = system: KB tumor xenografts; assay: Biodistribution studies in nude mice bearing KB tumor xenografts; assay type: in vivo, nude mice (CD-1 Foxn-1/nu)
Text: In vivo experiments were approved by the local veterinarian department and conducted in accordance to the Swiss law of animal protection. Six to eight-week-old female, athymic nude mice (CD-1 Foxn-1/nu) were purchased from Charles River Laboratories (Sulzfeld, Germany). The animals were fed with a folate-deficient rodent diet starting 5 days prior to the tumor cell inoculation. Mice were inoculated with KB cells (5×10^6 cells in […] PBS) into the subcutis of each shoulder. Animal experiments were performed approximately 14 days after tumor cell inoculation. Biodistribution studies were performed in triplicate. [^18F]-3′-aza-2′-fluorofolic acid was diluted in PBS pH 7.4 to the desired radioactivity concentration (˜5 MBq per mouse) for immediate administration via a lateral tail vein.
[…] Selected tissues and organs were collected, weighed, and counted for radioactivity in a −counter. The results were listed as percentage of the injected dose per gram of tissue weight [% ID/g], using reference counts from a definite sample of the original injectate that was counted at the same time.
The obtained are summarized in Table 2 and represent the percentage injected dose per gram tissue [% ID/g] averaged from three or four animals (Table 2).

[4] = PET, pemetrexed 400 μg 60 min prior to the radiotracer
[5] = 60 min p.i. blockade (100 μg folic acid 10 min before radiotracer)

For `Nc1nc2ncc(CNc3ccc(C(=O)N[C@@H](CCC(=O)O)C(=O)O)c([18F])n3)nc2c(=O)[nH]1` [3′-aza-2′-[^18F]fluorofolic acid], the “Uptake in the tumor tissue and in the kidneys with coinjected folic acid” value ([1]; PET 120-150 min p.i., excess folic acid 100 μg) was “reduced uptake”, the “Accumulation in the liver after preinjection of pemetrexed” value [1, 4] was “very strong reduction” and the “Kidney uptake after preinjection of pemetrexed” value [1, 4] was “reduced kidney uptake”. For the same compound, the “Tumor uptake after preinjection of pemetrexed” value [1, 4] was “high tumor uptake”, the “Specific uptake in KB tumor xenografts” value ([1]; quoted with static baseline PET scan 120-150 min p.i.) was 12.6±1.8 % ID/g and the “Uptake in other non-target organs (except liver, kidneys and salivary glands)” value ([1]; static baseline PET scan 120-150 min p.i.) was “negligible”. For the same compound, the “Stability in human blood plasma” value [2] was “completely stable”, the “% ID/g in Blood” value ([3]; 30 min p.i., i.v.) was 1.2 ± 0.3 % ID/g and the “% ID/g in Bone” value ([3]; 30 min p.i., i.v.) was 2.1 ± 0.3 % ID/g. The “% ID/g in Feces” value ([3]; 30 min p.i., i.v.) was 1.2 ± 0.2 % ID/g, the “% ID/g in Gallbladder” value ([3]; 30 min p.i., i.v.) was 8.1 ± 2.9 % ID/g and the “% ID/g in Heart” value ([3]; 30 min p.i., i.v.) was 2.1 ± 0.2 % ID/g. For the same compound, the “% ID/g in Intestine” value ([3]; 30 min p.i., i.v.) was 1.4 ± 0.1 % ID/g, the “% ID/g in Kidneys” value ([3]; 30 min p.i., i.v.) was 54.8 ± 6.1 % ID/g and the “% ID/g in Liver” value ([3]; 30 min p.i., i.v.) was 13.7 ± 2.9 % ID/g. The “% ID/g in Lungs” value ([3]; 30 min p.i., i.v.) was 2.0 ± 0.3 % ID/g, the “% ID/g in Muscle” value ([3]; 30 min p.i., i.v.) was 1.7 ± 0.4 % ID/g and the “% ID/g in Salivary glands” value ([3]; 30 min p.i., i.v.) was 9.0 ± 1.3 % ID/g. For the same compound, the “% ID/g in Spleen” value ([3]; 30 min p.i., i.v.) was 1.3 ± 0.2 % ID/g, the “% ID/g in Stomach” value ([3]; 30 min p.i., i.v.) was 2.8 ± 0.5 % ID/g and the “% ID/g in Tumor” value ([3]; 30 min p.i., i.v.) was 11.7 ± 0.9 % ID/g. For the same compound, the “Ratio Tumor/Blood” value ([3]; 30 min p.i., i.v.) was 11.1 ± 4.1, the “Ratio Tumor/Kidneys” value ([3]; 30 min p.i., i.v.) was 0.2 ± 0.1 and the “Ratio Tumor/Liver” value ([3]; 30 min p.i., i.v.) was 0.9 ± 0.2. The “% ID/g in Blood” value [3, 5] was 0.8 ± 0.3 % ID/g, the “% ID/g in Bone” value [3, 5] was 0.6 ± 0.3 % ID/g and the “% ID/g in Feces” value [3, 5] was 6.0 ± 1.1 % ID/g. For the same compound, the “% ID/g in Gallbladder” value [3, 5] was 15.8 ± 9.3 % ID/g, the “% ID/g in Heart” value [3, 5] was 0.4 ± 0.2 % ID/g and the “% ID/g in Intestine” value [3, 5] was 1.3 ± 0.6 % ID/g. For the same compound, the “% ID/g in Kidneys” value [3, 5] was 5.9 ± 4.5 % ID/g, the “% ID/g in Liver” value [3, 5] was 10.9 ± 3.4 % ID/g and the “% ID/g in Lungs” value [3, 5] was 0.7 ± 0.3 % ID/g. For the same compound, the “% ID/g in Muscle” value [3, 5] was 0.3 ± 0.1 % ID/g, the “% ID/g in Salivary glands” value [3, 5] was 0.6 ± 0.2 % ID/g and the “% ID/g in Spleen” value [3, 5] was 0.4 ± 0.2 % ID/g. For the same compound, the “% ID/g in Stomach” value [3, 5] was 0.6 ± 0.3 % ID/g, the “% ID/g in Tumor” value [3, 5] was 1.7 ± 0.4 % ID/g and the “Ratio Tumor/Blood” value [3, 5] was 2.2 ± 0.3. The “Ratio Tumor/Kidneys” value [3, 5] was 0.4 ± 0.2, the “Ratio Tumor/Liver” value [3, 5] was 0.2 ± 0.1 and the “% ID/g in Blood” value ([3]; 60 min p.i., i.v.) was 0.6 ± 0.1 % ID/g. The “% ID/g in Bone” value ([3]; 60 min p.i., i.v.) was 1.6 ± 0.3 % ID/g, the “% ID/g in Feces” value ([3]; 60 min p.i., i.v.) was 3.0 ± 2.0 % ID/g and the “% ID/g in Gallbladder” value ([3]; 60 min p.i., i.v.) was 8.4 ± 1.8 % ID/g. For the same compound, the “% ID/g in Heart” value ([3]; 60 min p.i., i.v.) was 1.9 ± 0.3 % ID/g, the “% ID/g in Intestine” value ([3]; 60 min p.i., i.v.) was 1.9 ± 0.2 % ID/g and the “% ID/g in Kidneys” value ([3]; 60 min p.i., i.v.) was 53.6 ± 3.2 % ID/g. For the same compound, the “% ID/g in Liver” value ([3]; 60 min p.i., i.v.) was 10.6 ± 0.9 % ID/g, the “% ID/g in Lungs” value ([3]; 60 min p.i., i.v.) was 1.5 ± 0.2 % ID/g and the “% ID/g in Muscle” value ([3]; 60 min p.i., i.v.) was 1.2 ± 0.2 % ID/g. The “% ID/g in Salivary glands” value ([3]; 60 min p.i., i.v.) was 15.0 ± 6.1 % ID/g, the “% ID/g in Spleen” value ([3]; 60 min p.i., i.v.) was 1.9 ± 0.1 % ID/g and the “% ID/g in Stomach” value ([3]; 60 min p.i., i.v.) was 2.8 ± 0.9 % ID/g. The “% ID/g in Tumor” value ([3]; 60 min p.i., i.v.) was 11.9 ± 1.7 % ID/g, the “Ratio Tumor/Blood” value ([3]; 60 min p.i., i.v.) was 21.6 ± 2.3 and the “Ratio Tumor/Kidneys” value ([3]; 60 min p.i., i.v.) was 0.2 ± 0.1. For the same compound, the “Ratio Tumor/Liver” value ([3]; 60 min p.i., i.v.) was 1.1 ± 0.2, the “% ID/g in Blood” value ([3]; 90 min p.i., i.v.) was 0.6 ± 0.1 % ID/g and the “% ID/g in Bone” value ([3]; 90 min p.i., i.v.) was 1.6 ± 0.3 % ID/g. For the same compound, the “% ID/g in Feces” value ([3]; 90 min p.i., i.v.) was 1.8 ± 0.3 % ID/g, the “% ID/g in Gallbladder” value ([3]; 90 min p.i., i.v.) was 9.3 ± 0.6 % ID/g and the “% ID/g in Heart” value ([3]; 90 min p.i., i.v.) was 1.8 ± 0.1 % ID/g. For the same compound, the “% ID/g in Intestine” value ([3]; 90 min p.i., i.v.) was 2.3 ± 0.4 % ID/g, the “% ID/g in Kidneys” value ([3]; 90 min p.i., i.v.) was 57.3 ± 8.4 % ID/g and the “% ID/g in Liver” value ([3]; 90 min p.i., i.v.) was 10.3 ± 2.4 % ID/g. The “% ID/g in Lungs” value ([3]; 90 min p.i., i.v.) was 1.6 ± 0.3 % ID/g, the “% ID/g in Muscle” value ([3]; 90 min p.i., i.v.) was 1.5 ± 0.4 % ID/g and the “% ID/g in Salivary glands” value ([3]; 90 min p.i., i.v.) was 14.1 ± 0.9 % ID/g. The “% ID/g in Spleen” value ([3]; 90 min p.i., i.v.) was 2.2 ± 0.2 % ID/g, the “% ID/g in Stomach” value ([3]; 90 min p.i., i.v.) was 2.7 ± 0.1 % ID/g and the “% ID/g in Tumor” value ([3]; 90 min p.i., i.v.) was 12.6 ± 1.8 % ID/g. The “Ratio Tumor/Blood” value ([3]; 90 min p.i., i.v.) was 23.8 ± 4.1, the “Ratio Tumor/Kidneys” value ([3]; 90 min p.i., i.v.) was 0.2 ± 0.1 and the “Ratio Tumor/Liver” value ([3]; 90 min p.i., i.v.) was 1.3 ± 0.4.
